According to the supplement of paper PMC10920090:

Columns and labels:
[1] = system: MDA-MB-231; assay: drug sensitivity score (DSS), cytotoxicity CellTox Green; higher = more cytotoxic; extreme values may be limits of the assay; details: 72 h
[2] = system: MDA-MB-231; assay: drug sensitivity score (DSS), cell viability CellTiter-Glo; higher = more sensitive; extreme values may be limits of the assay; details: 72 h
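For drug sensitivity score (DSS), cytotoxicity CellTox Green in this document: DSS summarises each dose–response curve by combining IC50, EC50, maximal inhibition and efficacy across drug concentrations.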

SMILES | drug sensitivity score ([1]; shRNA: shPPFIA1_1) [DSS] | drug sensitivity score ([1]; shRNA: shScramble) [DSS] | drug sensitivity score ([2]; shRNA: shPPFIA1_1) [DSS] | drug sensitivity score ([2]; shRNA: shScramble) [DSS]
CC(C)[C@H](C(=O)Nc1ccc(C(=O)NO)cc1)c1ccccc1 [AR-42] | 12.6 | 7.5 | 9.3 | 9.5
CNC(=O)c1ccc(N2C(=S)N(c3cnc(C#N)c(C(F)(F)F)c3)C(=O)C23CCC3)cc1F [ARN 509] | 0 | 0 | 0 | 0.4
COc1cc(N2CCC(N3CCN(C)CC3)CC2)ccc1Nc1ncnc(Nc2ccccc2S(=O)(=O)C(C)C)n1 [ASP3026] | 0 | 0 | 0.3 | 3.7
O=C(NC1CCNCC1)c1n[nH]cc1NC(=O)c1c(Cl)cccc1Cl [AT7519] | 8.6 | 5.3 | 5.6 | 12.7
O=C(Nc1c[nH]nc1-c1nc2ccc(CN3CCOCC3)cc2[nH]1)NC1CC1 [AT9283] | 0.2 | 0.8 | 0 | 0.5
CC[C@H](CC#N)OC(=O)N[C@@H](C)c1cccc(NC(=O)Nc2ccc(-c3cnco3)c(OC)c2)c1 [AVN944] | 0 | 0 | 0 | 5.4
COc1cc(N2CCN(C)CC2)ccc1Nc1nccc(-c2cn(C)c3cnccc23)n1 [AZ191] | 0 | 2.9 | 3.6 | 6.8
COc1cc(OC2CCN(C)CC2)ccc1Nc1ncc2c(n1)n(C1CCCC1)c(=O)n2C [AZ 3146] | 0.7 | 2.7 | 4.7 | 8.7
CC(C)Oc1cc(Nc2nc(N[C@@H](C)c3ccc(F)cn3)ncc2Cl)n[nH]1 [AZ-23] | 0 | 1 | 0 | 0
N[C@@H]1CCCN(c2c(/C=C3\SC(=O)NC3=O)cccc2-c2ccccc2)C1 [AZD1208] | 0 | 0 | 0 | 0
Cc1cc(Nc2nc(N[C@@H](C)c3ncc(F)cn3)ncc2Cl)[nH]n1 [AZD1480] | 0 | 0 | 0 | 0
CNC(=O)c1cccc(-c2ccc3c(N4CCOC[C@@H]4C)nc(N4CCOC[C@@H]4C)nc3n2)c1 [AZD2014] | 0 | 0.5 | 0 | 7.9
COc1cc(CCc2cc(NC(=O)c3ccc(N4CC(C)NC(C)C4)cc3)n[nH]2)cc(OC)c1 (configuration not stated) [AZD4547] | 0 | 0 | 0 | 0
CN(C)C(=O)c1ccc(S(=O)(=O)c2ccc(NC(=O)[C@@](C)(O)C(F)(F)F)c(Cl)c2)cc1 [AZD7545] | 0 | 0 | 3.6 | 0
NC(=O)Nc1cc(-c2cccc(F)c2)sc1C(=O)N[C@H]1CCCNC1 [AZD7762] | 2.8 | 0.1 | 4.5 | 5.7
COc1ccc(-c2ccc3c(N4CCOC[C@@H]4C)nc(N4CCOC[C@@H]4C)nc3n2)cc1CO [AZD8055] | 0 | 0 | 2.3 | 9.6
N#Cc1ccc2[nH]c(O)c(-c3ccc(CN4CCOCC4)cn3)c2c1 [AZD-1080] | 0 | 0 | 0 | 0
Cc1ncc(-c2ccnc(Nc3ccc(S(C)(=O)=O)cc3)n2)n1C(C)C [AZD-5438] | 2.7 | 0.5 | 0.1 | 2.3
C[C@@H](Nc1cc(F)cc(F)c1)c1cc(C(=O)N(C)C)cc2c(=O)cc(N3CCOCC3)oc12 [AZD-8186] | 0 | 0 | 0 | 1.7
CCN1CCN(Cc2ccc(Nc3ncc(F)c(-c4cc(F)c5nc(C)n(C(C)C)c5c4)n3)nc2)CC1 [Abemaciclib] | 0.9 | 0 | 0.9 | 0
CN(C)Cc1c(C(=O)NCCOc2ccc(C(=O)NO)cc2)oc2ccccc12 [Abexinostat] | 16.6 | 10.4 | 3.4 | 12.2

SMILES | drug sensitivity score ([1]; shRNA: shPPFIA1_1) [DSS] | drug sensitivity score ([1]; shRNA: shScramble) [DSS] | drug sensitivity score ([2]; shRNA: shPPFIA1_1) [DSS] | drug sensitivity score ([2]; shRNA: shScramble) [DSS]
C[C@]12CC[C@H](O)CC1=CC[C@@H]1[C@@H]2CC[C@]2(C)C(c3cccnc3)=CC[C@@H]12 [Abiraterone] | 0 | 0 | 0 | 0.9
Cn1ncc(Cl)c1-c1cc(C(=O)N[C@H](CN)Cc2cccc(F)c2)sc1Cl [Afuresertib] | 0 | 0 | 0.5 | 1.6
COc1cccc2c1C(=O)c1c(O)c3c(c(O)c1C2=O)C[C@@](O)(/C(CO)=N/NC(=O)CCCCCN1C(=O)C=CC1=O)C[C@@H]3O[C@H]1C[C@H](N)[C@H](O)[C@H](C)O1 [Aldoxorubicin] | 0 | 0 | 1.2 | 7.3
CCc1cc2c(cc1N1CCC(N3CCOCC3)CC1)C(C)(C)c1[nH]c3cc(C#N)ccc3c1C2=O [Alectinib] | 0 | 0 | 0 | 0.4
COc1cc(Nc2ncc3c(n2)-c2ccc(Cl)cc2C(c2c(F)cccc2OC)=NC3)ccc1C(=O)O [Alisertib] | 0.7 | 0 | 0.8 | 0.1
Oc1ncnc2[nH]ncc12 [Allopurinol] | 0 | 0 | 0 | 0
Cc1nc(NC(=O)N2CCC[C@H]2C(N)=O)sc1-c1ccnc(C(C)(C)C(F)(F)F)c1 [Alpelisib] | 0 | 0 | 1.5 | 0
CN(C)c1nc(N(C)C)nc(N(C)C)n1 [Altretamine] | 0 | 0 | 0 | 0
CO[C@H]1/C=C\C=C(/C)C(=O)NC2=CC(=O)C(NCCN(C)C)=C(C[C@@H](C)C[C@H](OC)[C@H](O)[C@@H](C)/C=C(\C)[C@@H]1OC(N)=O)C2=O [Alvespimycin] | 0 | 0.6 | 4.8 | 7.2
CN1CC[C@H](c2c(O)cc(O)c3c(=O)cc(-c4ccccc4Cl)oc23)[C@H](O)C1 [Alvocidib] | 11.9 | 7.4 | 10.6 | 15.2
CCC1(c2ccc(N)cc2)CCC(=O)NC1=O (configuration not stated) [Aminoglutethimide] | 0 | 0 | 0 | 0
CN(C)CCN1C(=O)c2cccc3cc(N)cc(c23)C1=O [Amonafide] | 1 | 2.5 | 3.5 | 8.2
COc1cc(NS(C)(=O)=O)ccc1Nc1c2ccccc2nc2ccccc12 [Amsacrine] | 2 | 7.4 | 4.8 | 8.6
S=C(NCc1ccc2c(c1)OCO2)N1CCN(c2ncnc3c2oc2ccccc23)CC1 [Amuvatinib] | 5.5 | 0 | 0.6 | 1.8
O=C1CN2Cc3c(ccc(Cl)c3Cl)N=C2N1 [Anagrelide] | 0 | 0 | 0 | 0
CC(C)(C#N)c1cc(Cn2cncn2)cc(C(C)(C)C#N)c1 [Anastrozole] | 0 | 0 | 0 | 0
N#CC1(c2ccc(NC(=O)c3cccnc3NCc3ccncc3)cc2)CCCC1 [Apatinib] | 0 | 0 | 0 | 0
Cc1c(CN2CCN(C(=O)[C@H](C)O)CC2)sc2c(N3CCOCC3)nc(-c3cnc(N)nc3)nc12 [Apitolisib] | 0 | 0 | 0 | 5.6
CC(C)c1c(C(=O)Nc2ccccc2)c(-c2ccccc2)c(-c2ccc(F)cc2)n1CC[C@@H](O)C[C@@H](O)CC(=O)O [Atorvastatin] | 2 | 0.6 | 2.5 | 7.3
CC(=O)OC[C@H]1O[C@@H]([S-])[C@H](OC(C)=O)[C@@H](OC(C)=O)[C@@H]1OC(C)=O.CCP(CC)CC.[Au+] [Auranofin] | 0 | 0.4 | 3.2 | 4.2
CNC(=O)c1ccccc1Sc1ccc2c(/C=C/c3ccccn3)n[nH]c2c1 [Axitinib] | 0 | 0 | 0 | 0.2

SMILES | drug sensitivity score ([1]; shRNA: shPPFIA1_1) [DSS] | drug sensitivity score ([1]; shRNA: shScramble) [DSS] | drug sensitivity score ([2]; shRNA: shPPFIA1_1) [DSS] | drug sensitivity score ([2]; shRNA: shScramble) [DSS]
Nc1ncn([C@@H]2O[C@H](CO)[C@@H](O)[C@H]2O)c(=O)n1 [Azacitidine] | 0 | 0 | 0 | 1.1
Cc1cc(-c2nc(-c3ccc(OC(F)(F)F)cc3)no2)nn1Cc1ccnc(N2CCN(C3CC3)CC2)c1 [BAY 87-2243] | 0 | 0 | 14.7 | 13
Nc1nc(Nc2ccc3c(c2)CC[C@@H](N2CCCC2)CC3)nn1-c1cc2c(nn1)-c1ccccc1CCC2 [BGB324] | 4.4 | 6.1 | 10.6 | 9.5
CC[C@@H]1C(=O)N(C)c2cnc(Nc3ccc(C(=O)NC4CCN(C)CC4)cc3OC)nc2N1C1CCCC1 [BI 2536] | 0.3 | 0 | 0 | 11.3
COc1c(C)cnc(Cn2cnc3c(Cl)nc(N)nc32)c1C [BIIB021] | 3.1 | 2.8 | 10.8 | 15.9
O=C(Nc1cccc(Nc2ncc(Br)c(NCCc3cnc[nH]3)n2)c1)N1CCCC1 [BX-912] | 1.8 | 3.1 | 3.5 | 5.7
Cc1ccc(NC(=O)c2ccc(CN3CC[C@H](N(C)C)C3)c(C(F)(F)F)c2)cc1Nc1nccc(-c2cncnc2)n1 [Bafetinib] | 0.6 | 0.5 | 0 | 4.3
CCS(=O)(=O)N1CC(CC#N)(n2cc(-c3ncnc4[nH]ccc34)cn2)C1 [Baricitinib] | 0 | 0 | 0.9 | 0.9
O=C(/C=C/c1cccc(S(=O)(=O)Nc2ccccc2)c1)NO [Belinostat] | 14.9 | 8.1 | 8.7 | 10.2
Cn1c(CCCC(=O)O)nc2cc(N(CCCl)CCCl)ccc21 [Bendamustine] | 0 | 0 | 0 | 0
N#CC(c1ccnc(OCc2ccc(CN3CCOCC3)cc2)n1)c1nc2ccccc2s1 (configuration not stated) [Bentamapimod] | 0 | 0 | 1.6 | 3.7
C=C(c1ccc(C(=O)O)cc1)c1cc2c(cc1C)C(C)(C)CCC2(C)C [Bexarotene] | 0 | 0 | 0 | 0
CC(O)(CS(=O)(=O)c1ccc(F)cc1)C(=O)Nc1ccc(C#N)c(C(F)(F)F)c1 (configuration not stated) [Bicalutamide] | 0 | 0 | 0 | 0.2
CCNC(=O)CCC/C=C\C[C@@H]1[C@@H](/C=C/[C@@H](O)CCc2ccccc2)[C@H](O)C[C@@H]1O [Bimatoprost] | 0 | 0 | 0 | 0
Cn1cnc2c(F)c(Nc3ccc(Br)cc3F)c(C(=O)NOCCO)cc21 [Binimetinib] | 0 | 2.2 | 0 | 2.7
CC[C@H](NC(=O)[C@H](C)NC)C(=O)N1C[C@@H](O)C[C@H]1Cc1c(-c2[nH]c3cc(F)ccc3c2C[C@@H]2C[C@H](O)CN2C(=O)[C@H](CC)NC(=O)[C@H](C)NC)[nH]c2cc(F)ccc12 [Birinapant] | 31.3 | 22.4 | 20.3 | 13.2
Cc1c(N)nc([C@H](CC(N)=O)NC[C@H](N)C(N)=O)nc1C(=O)N[C@H](C(=O)N[C@H](C)[C@@H](O)[C@H](C)C(=O)N[C@H](C(=O)NCCc1nc(-c2nc(C(=O)NCCC[S+](C)C)cs2)cs1)[C@@H](C)O)[C@@H](OC1OC(CO)C(O)C(O)C1OC1OC(CO)C(O)C(OC(N)=O)C1O)c1cnc[nH]1 (some centres not stated) [Bleomycin] | 0.1 | 0 | 0 | 3.5
CC(C)C[C@H](NC(=O)[C@H](Cc1ccccc1)NC(=O)c1cnccn1)B(O)O [Bortezomib] | 26.8 | 24.3 | 21.3 | 23.1
COc1cc(Nc2c(C#N)cnc3cc(OCCCN4CCN(C)CC4)c(OC)cc23)c(Cl)cc1Cl [Bosutinib] | 6.2 | 6.3 | 6.3 | 9.3
COc1cc(N2CCC(N3CCN(C)CC3)CC2)ccc1Nc1ncc(Cl)c(Nc2ccccc2P(C)(C)=O)n1 [Brigatinib] | 1.8 | 3.6 | 6.4 | 0.7
Cc1cc2c(F)c(Oc3ncnn4cc(OC[C@@H](C)O)c(C)c34)ccc2[nH]1 [Brivanib] | 0 | 0 | 0 | 0
